Counter-ions that a name gives are not always drawn.
Test system: healthy male subjects
Assay: Two step infusion study in healthy male subjects: safety and tolerability
Assay type: in vivo, human
Description: A double-blind, placebo-controlled, randomized, single iv dose, two periods cross-over study to assess the safety, tolerability, pharmacodynamics and pharmacokinetics during and following a two step infusion of Tedisamil in healthy male subjects was performed with the following drug and dosages: Tedisamil dihydrochloride/0.4 mg/kg body weight infused over 30 minutes.
Screening assessments included physical examination, ECG, HIV/Hepatitis screening, blood pressure and heart rate measurements, clinical laboratory determinations, urine drug screen, alcohol breath test, and medical history. Follow-up assessments included physical examination, ECG, blood pressure and heart rate measurements, clinical laboratory determinations, and questions for adverse events and concomitant medication. During concomitant administration of Tedisamil, blood pressure, heart rate, and ECGs were recorded. Adverse events and concomitant medication were monitored throughout the study.
Subjects who received study medication, were considered valid for safety evaluation.
Treatment emergent adverse events, defined as any adverse event present at baseline that worsened or any event that began after treatment with study medication, were summarized by COSTART term for each treatment group. Each adverse event was evaluated for frequency of occurrence, duration, intensity, action taken, outcome, and relationship to administration of the study medication. Adverse events were listed for each subject.
Listings of abnormal or out of range values for each subject were presented for vital signs, laboratory assays, and physical examinations. Adverse events, blood pressure, heart rate and clinical laboratory data were analyzed descriptively and reviewed to evaluate the safety of all randomized subjects. Any clinical abnormalities were described.

C1CCC2(C1)C1CN(CC3CC3)CC2CN(CC2CC2)C1 [tedisamil dihydrochloride, N,N′-dicyclopropylmethyl-9,9-tetramethylen-3,7-diazabicyclo[3,3,1]nonane dihydrochloride]
Findings in hematology, clinical chemistry, urinalysis and vital signs (0.4 mg/kg iv two step infusion): No clinically relevant findings | Safety and tolerability (two step infusion of 0.4 mg tedisamil dihydrochloride per kg (0.32 mg/kg base), dihydrochloride): well tolerated

Source: patent publication US7087620B2, “Liquid pharmaceutical formulations containing 3,7-diazabicyclo[3,3,1]nonane compounds and methods of treatment relating to anti-arrhythmic events” (Solvay Pharmaceuticals GmbH, priority 2002, dated 2006)
